Source: US10251408B2, “Catechin function enhancement method” (KYUSHU UNIVERSITY, NATIONAL UNIVERSITY CORPORATION, priority 2014, dated 2019)

Assays:
[1] = test system: MCP-1; experiment: Fat tissue MCP-1 mRNA by real-time PCR in HF/HS diet-fed mice; type: in vivo, mouse; conditions: C57BL/6J mice; Yabukita 0.2% and/or eriodictyol 0.45 g/kg diet; 8 weeks; FIG. 5
From the text: Male C57BL/6J mice at 12 weeks of age were preliminarily kept for 1 week and then divided into 5 groups such that the average body weight was equal in all groups, i.e., a control (AIN-93G-based diet) group, a HF/HS (high-fat high-sucrose diet) group, a Yabukita (0.2%) (HF/HS+Yabukita) group, an eriodictyol (HF/HS+eriodictyol) group, and a Yabukita+eriodictyol (HF/HS+Yabukita+eriodictyol) group. A feed supplemented with Yabukita (0.2%) and eriodictyol (0.45 g/kg diet) was given to the mice. The feed was given in an amount of 4 g/day and the mice were kept for 8 weeks under ad libitum drinking conditions. After being fasted for 16 hours, the mice were sacrificed by abdominal aortic puncture under isoflurane anesthesia. The collected blood samples were allowed to stand at 37° C. for 2 hours to cause coagulation and then centrifuged at 4° C. at 2000×g for 15 minutes to collect serum fractions. The values of serum total cholesterol and LDL were measured. […] Yabukita and eriodictyol were examined for their effect on obesity in high-fat high-sucrose diet-fed obese model mice. […] After being measured for their body weight, the mice were fasted for 16 hours and then sacrificed by abdominal aortic puncture under isoflurane anesthesia. […] The values of serum total cholesterol and LDL were measured.

[2] = test system: 3-hydroxy-3-methylglutaryl-CoA synthase (HMCGS); experiment: Liver HMCGS mRNA by real-time PCR in HF/HS diet-fed mice; type: in vivo, mouse; conditions: HF/HS diet-fed C57BL/6J mice; Yabukita 0.2% and/or eriodictyol 0.45 g/kg diet; 8 weeks; FIG. 6
From the text: Male C57BL/6J mice at 12 weeks of age were preliminarily kept for 1 week and then divided into 5 groups such that the average body weight was equal in all groups, i.e., a control (AIN-93G-based diet) group, a HF/HS (high-fat high-sucrose diet) group, a Yabukita (0.2%) (HF/HS+Yabukita) group, an eriodictyol (HF/HS+eriodictyol) group, and a Yabukita+eriodictyol (HF/HS+Yabukita+eriodictyol) group. A feed supplemented with Yabukita (0.2%) and eriodictyol (0.45 g/kg diet) was given to the mice. The feed was given in an amount of 4 g/day and the mice were kept for 8 weeks under ad libitum drinking conditions. After being fasted for 16 hours, the mice were sacrificed by abdominal aortic puncture under isoflurane anesthesia. […] Yabukita and eriodictyol were examined for their effect on cholesterol metabolism-related gene expression in the liver of high-fat high-sucrose diet-fed obese model mice. C57BL/6J mice were preliminarily kept for 1 week and then divided into the respective groups such that the average body weight was equal in all groups. Each feed was given in an amount of 4 g/day and the mice were kept for 8 weeks under ad libitum drinking conditions. After being fasted for 16 hours, the mice were sacrificed by abdominal aortic puncture under isoflurane anesthesia.

[3] = test system: caspase-3; experiment: Caspase-3 activation in MPC-11 tumor sections (immunohistological staining); type: in vivo, mouse; conditions: MPC-11-implanted balb/c mice; EGCG 15 mg/kg i.p. and eriodictyol 15 mg/kg i.p.; after 6 hours; FIG. 13
Description: After female balb/c mice at 5 weeks of age were preliminarily kept for 2 weeks, a cell suspension of mouse multiple myeloma cell line MPC-11 suspended at 5×10^6 cells/mL in RPMI medium was implanted by subcutaneous injection in a volume of 200 μL into the right dorsal region of each mouse. At 11 days after implantation, the mice were administered […] with EGCG (15 mg/kg i.p.) and eriodictyol (15 mg/kg i.p.) and then sacrificed after 6 hours. Tumors were excised and tissue sections were prepared therefrom, followed by immunohistological staining to determine the number of cells where caspase-3 was activated. To examine the effect of eriodictyol on EGCG-induced activation of caspase-3 indicative of 67LR-dependent cancer cell death induction mechanism activity, female balb/c mice at 5 weeks of age were implanted with mouse multiple myeloma cell line MPC-11 by subcutaneous injection. At 11 days after implantation, the mice were administered with EGCG (15 mg/kg i.p.) and eriodictyol (15 mg/kg i.p.) and then sacrificed after 6 hours. Tissue sections were prepared from the excised tumors and evaluated for the activation state of caspase-3.

[4] = test system: Human multiple myeloma cell line U266; experiment: Anticancer effect, viable cells by trypan blue assay (24-well plates, FIG. 14-19); type: cell-based; conditions: 5 μM each, 96 hours
Description: Human multiple myeloma cell line U266 was subcultured and maintained in RPMI 1640 medium supplemented with 10% fetal bovine serum (FCS) under conditions of 37° C. and water vapor-saturated 5% CO2. The cells were maintained in the logarithmic growth phase. The RPMI 1640 medium used for culture was prepared as follows: per liter of ultrapure water, RPMI 1640 medium (10.4 g), HEPES (2.38 g), injectable penicillin G potassium (100,000 units), streptomycin sulfate injectable (100 mg) and NaHCO3 (2.0 g) were suspended and then filter-sterilized. Then, the RPMI 1640 medium was supplemented with FCS and used for cell culture. Per liter of ultrapure water, NaCl (8.0 g), KCl (0.2 g), Na2HPO4 (1.15 g) and KH2PO4 (0.2 g) were dissolved to prepare PBS, which was then sterilized in an autoclave.
Eriodictyol and structural analogs thereof, i.e., naringenin and hesperetin, as well as glycosides thereof, i.e., eriocitrin, naringin and hesperidin were each adjusted to 5 mM with 100% dimethyl sulfoxide (DMSO) and stored at −30° C. EGCG and (−)-gallocatechin gallate (GCG) were each adjusted to 5 mM with ultrapure water and stored at −30° C. EGCG 3″Me was adjusted to 5 mM with 10% DMSO dH2O and stored at −30° C.
U266 adjusted to 5×10^4 cells/mL in RPMI 1640 containing 1% FCS, SOD (5 U/mL) and catalase (200 U/mL) was seeded in 24-well plates and cultured for 96 hours in the presence of EGCG and analogs thereof or eriodictyol and analogs thereof added at a final concentration of 5 μM each. After culture, viable cells were counted by trypan blue assay.
For statistical processing of the experimental results, Student's test was used and P<0.05 was considered statistically significant in comparison with control data in the vehicle group.

With `O=C1C[C@@H](c2ccc(O)c(O)c2)Oc2cc(O)cc(O)c21` [eriodictyol] the “high-fat high-sucrose diet-induced increase in fat tissue MCP-1 expression level (mRNA)” value [1] was “no effect”, the “mRNA expression level of HMCGS in the liver” value [2] was “no effect” and the “effect on EGCG-induced caspase-3 activation in tumors” value [3] was “remarkably enhance the ability of EGCG to induce caspase-3 activation”. The “enhancement of the anticancer effect (viable cells) of EGCG” value ([4]; combined with EGCG) was “remarkably enhance the anticancer effect”, the “enhancement of the anticancer effect (viable cells) of EGCG 3″Me” value ([4]; combined with EGCG 3″Me) was “remarkably enhance the anticancer effect” and the “enhancement of the anticancer effect (viable cells) of GCG” value ([4]; combined with GCG (gallocatechin gallate)) was “remarkably enhance the anticancer effect”.
